Results taken from the supplement of paper PMC10307832.

Assays:
Assay in all cases: relative viability (nuclei count vs DMSO), 5 days (fraction); higher = more cells survive
Imatinib + Crizotinib = compound: Cc1ccc(NC(=O)c2ccc(CN3CCN(C)CC3)cc2)cc1Nc1nccc(-c2cccnc2)n1 [Imatinib] + C[C@@H](Oc1cc(-c2cnn(C3CCNCC3)c2)cnc1N)c1c(Cl)ccc(F)c1Cl [Crizotinib] (partner 1 µM)
In short: (§1)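 Each reported value is a median over duplicate plates. It expresses relative viability: treated-well nuclei count divided by vehicle-well nuclei count. Lung cancer cell lines in 1536-well plates were dosed by pin tool a day after seeding, alone with one drug or with a fixed anchor-drug dose plus five library-drug doses (not always all listed) in √10 steps, and nuclei were counted after 5 days.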

Imatinib + Vorinostat = compound: Cc1ccc(NC(=O)c2ccc(CN3CCN(C)CC3)cc2)cc1Nc1nccc(-c2cccnc2)n1 [Imatinib] + O=C(CCCCCCC(=O)Nc1ccccc1)NO [Vorinostat] (partner 1 µM)
In short: as §1

Imatinib + Trametinib = compound: Cc1ccc(NC(=O)c2ccc(CN3CCN(C)CC3)cc2)cc1Nc1nccc(-c2cccnc2)n1 [Imatinib] + CC(=O)Nc1cccc(-n2c(=O)n(C3CC3)c(=O)c3c(Nc4ccc(I)cc4F)n(C)c(=O)c(C)c32)c1 [Trametinib] (partner 0.02 µM)
In short: as §1

Imatinib + Luminespib = compound: Cc1ccc(NC(=O)c2ccc(CN3CCN(C)CC3)cc2)cc1Nc1nccc(-c2cccnc2)n1 [Imatinib] + CCNC(=O)c1noc(-c2cc(C(C)C)c(O)cc2O)c1-c1ccc(CN2CCOCC2)cc1 [Luminespib] (partner 0.01 µM)
In short: as §1

| Cell Line | relative viability (Imatinib + Crizotinib; first compound 0.06325 µM) | relative viability (Imatinib + Crizotinib; first compound 0.6325 µM) | relative viability (Imatinib + Crizotinib; first compound 2 µM) | relative viability (Imatinib + Vorinostat; first compound 0.02 µM) | relative viability (Imatinib + Vorinostat; first compound 0.06325 µM) | relative viability (Imatinib + Vorinostat; first compound 0.2 µM) | relative viability (Imatinib + Vorinostat; first compound 0.6325 µM) | relative viability (Imatinib + Vorinostat; first compound 2 µM) | relative viability (Imatinib + Trametinib; first compound 0.02 µM) | relative viability (Imatinib + Trametinib; first compound 0.06325 µM) | relative viability (Imatinib + Trametinib; first compound 0.2 µM) | relative viability (Imatinib + Trametinib; first compound 0.6325 µM) | relative viability (Imatinib + Trametinib; first compound 2 µM) | relative viability (Imatinib + Luminespib; first compound 0.02 µM) | relative viability (Imatinib + Luminespib; first compound 0.06325 µM) | relative viability (Imatinib + Luminespib; first compound 0.2 µM) | relative viability (Imatinib + Luminespib; first compound 0.6325 µM) | relative viability (Imatinib + Luminespib; first compound 2 µM) | relative viability (Imatinib + Crizotinib; first compound 0.02 µM) | relative viability (Imatinib + Crizotinib; first compound 0.2 µM) |
| --- | --- | --- | --- | --- | --- | --- | --- | --- | --- | --- | --- | --- | --- | --- | --- | --- | --- | --- | --- | --- |
| NCI-H1993 | 0.905 | 0.927 | 0.815 | 0.608 | 0.581 | 0.737 | 0.688 | 0.743 | 0.45 | 0.482 | 0.622 | 0.447 | 0.584 | 0.949 | 0.745 | 0.885 | 0.608 | 0.854 | – | – |
| NCI-H2009 | 1.23 | 1.02 | 1.04 | 0.805 | 0.646 | 0.554 | 0.794 | 0.758 | 0.319 | 0.214 | 0.255 | 0.296 | 0.246 | 1.15 | – | 0.888 | 1.08 | 0.934 | 1.09 | 0.975 |
| NCI-H2023 | 0.708 | 0.616 | 0.706 | 0.846 | 0.376 | 0.615 | – | 0.614 | 0.729 | 0.6 | 0.564 | – | 0.618 | 1.04 | 1.03 | 1.07 | 1.17 | 1.1 | 0.61 | 0.715 |
| NCI-H2085 | 0.891 | 0.839 | 0.841 | 0.755 | 0.683 | 0.772 | 0.743 | 0.768 | 0.49 | 0.515 | 0.535 | 0.58 | 0.513 | 0.548 | 0.628 | 0.421 | 0.463 | 0.541 | 0.826 | 0.903 |
| NCI-H2087 | 0.983 | 0.941 | 0.718 | 0.806 | – | 0.787 | 0.716 | – | 0.179 | – | 0.221 | 0.189 | – | 0.205 | – | 0.155 | 0.159 | 0.25 | 0.894 | 0.943 |
| NCI-H2126 | – | 1 | 0.984 | 0.702 | 0.582 | 0.789 | 0.724 | 0.818 | 0.525 | 0.43 | 0.565 | 0.57 | 0.574 | 0.955 | – | 0.979 | – | 0.959 | 1.04 | 1.05 |
| NCI-H2170 | 1.49 | 1.3 | 1.22 | 0.972 | 0.845 | 0.834 | 0.775 | 0.792 | 1 | 1.06 | 1.02 | 0.972 | 0.965 | 0.901 | 0.395 | 0.526 | 0.502 | 0.735 | 1.5 | 1.52 |
| NCI-H2228 | 0.383 | 0.478 | 0.393 | 0.677 | 0.692 | 0.724 | 0.602 | 1 | 0.663 | 0.338 | 0.467 | 0.507 | 0.605 | 0.147 | – | 0.126 | 0.12 | 0.152 | 0.351 | 0.54 |
| NCI-H2347 | 0.674 | 0.647 | 0.797 | 0.568 | – | 0.585 | 0.552 | 0.569 | 0.35 | – | 0.309 | 0.285 | 0.273 | 0.499 | 0.425 | 0.431 | 0.475 | 0.608 | 0.675 | 0.729 |
